From patent US20240150293A1, “SPIROCYCLOHEXANE DERIVATIVES, PHARMACEUTICAL COMPOSITIONS CONTAINING THEM AND THEIR USES AS ANTI-APOPTOTIC INHIBITORS” (LES LABORATOIRES SERVIER, priority 2021, published 2024)
Like-named read-outs stand apart in the source and are kept apart here.

Assays:
NCI-H929 cell lines = assay: In vitro cytotoxicity, CellTiter-Glo (CTG) assay (Example B, Method B); format: cell-based; conditions: NCI-H929 cells, 48 h incubation, read-out: C50
Procedure, shortened: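 NCI-H929 cells exposed to an 11-point compound series from 10 mM DMSO stocks (top final 30 μM) for 48 h at 37° C., 5% CO2. Viability measured as ATP by CellTiter-Glo luminescence; C50 is the concentration giving 50% cellular viability.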

[1] = target: Cy5-labelled Mcl1 (amino acids 171-321) C286S protein (UniProtKB Q07820) (Homo sapiens (Human), UniProt Q07820, C286S); assay: Inhibition of Mcl-1 by the fluorescence quenching assay (Example A, Method B); format: binding
Procedure, shortened: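 Cy5-labelled Mcl1 171-321 C286S (1 nM) quenched by TQ5WS-labelled PUMA peptide (10, 20 or 400 nM); displacement raises fluorescence (Ex 620/Em 680 nm). Buffer 10 mM HEPES, 150 mM NaCl, 0.05% Tween 20, pH 7.4, 5% DMSO; 2 h at room temperature, 11-point curves, IC50 converted to Ki (cKi/eKi).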

Chain of Cy5-labelled Mcl1 (amino acids 171-321) C286S protein (Q07820 171-321 C286S): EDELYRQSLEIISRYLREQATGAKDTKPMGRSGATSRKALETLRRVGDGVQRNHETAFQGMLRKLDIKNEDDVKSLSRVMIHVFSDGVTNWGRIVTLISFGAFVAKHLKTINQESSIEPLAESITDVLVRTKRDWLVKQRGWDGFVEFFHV

SMILES	IC50 (NCI-H929 cell lines; Homo sapiens, NCI-H929, 48 h) [nM]	Ki [1] [nM]	Ki ([1]; Ki determined from IC50) [nM]	IC50 (NCI-H929 cell lines) [nM]
C[C@@H](COc1ccnc2c1[C@H](C)CCC2)C[C@H]1Cc2cc3c(cc2[C@]12CC[C@@](Nc1cccc(Cl)c1)(C(=O)O)CC2)OC[C@@H](C)O3 [Example 974, (1r,2′R,4S,7′S)-4-(3-chloroanilino)-2′-methyl-7′-[(2R)-2-methyl-3-{[(5R)-5-methyl-5,6,7,8-tetrahydroquinolin-4-yl]oxy}propyl]-2′,3′,7′,8′-tetrahydrospiro[cyclohexane-1,6′-indeno[5,6-b][1,4]dioxine]-4-carboxylic acid]	60.4	0.023		
C[C@@H](COc1ccnc2c1[C@H](C)CCC2)C[C@H]1Cc2cc3c(cc2[C@]12CC[C@@](Nc1cccc(Cl)c1)(C(=O)O)CC2)CCO3 [Example 851, (1r,4S,6′S)-4-(3-chloroanilino)-6′-[(2R)-2-methyl-3-{[(5R)-5-methyl-5,6,7,8-tetrahydroquinolin-4-yl]oxy}propyl]-2′,3′,6′,7′-tetrahydrospiro[cyclohexane-1,5′-indeno[5,6-b]furan]-4-carboxylic acid]	34.9	0.0256		
CC[C@@H]1COc2cc3c(cc2O1)C[C@H](C[C@@H](C)COc1ccnc2c1[C@H](C)CCC2)[C@]31CC[C@](Nc2cccc(Cl)c2)(C(=O)O)CC1 [Example 980, (1r,2′R,4S,7′S)-4-(3-chloroanilino)-2′-ethyl-7′-[(2R)-2-methyl-3-{[(5R)-5-methyl-5,6,7,8-tetrahydroquinolin-4-yl]oxy}propyl]-2′,3′,7′,8′-tetrahydrospiro[cyclohexane-1,6′-indeno[5,6-b][1,4]dioxine]-4-carboxylic acid]	142	0.102		
C[C@@H](COc1ccnc2c1[C@H](C)CC[C@H]2C)C[C@H]1Cc2cc3c(cc2[C@]12CC[C@@](Nc1cccc(Cl)c1)(C(=O)O)CC2)OCO3 [Example 960, (1r,4S,6′S)-4-(3-chloroanilino)-6′-[(2R)-3-{[(5R,8R)-5,8-dimethyl-5,6,7,8-tetrahydroquinolin-4-yl]oxy}-2-methylpropyl]-6′,7′-dihydro-2′H-spiro[cyclohexane-1,5′-indeno[5,6-d][1,3]dioxole]-4-carboxylic acid]	77.5	0.0834		
CC[C@H]1COc2cc3c(cc2O1)[C@]1(CC[C@@](Nc2cccc(Cl)c2)(C(=O)O)CC1)[C@@H](C[C@@H](C)COc1ccnc2c1[C@H](C)CCC2)C3 [Example 977, (1r,3'S,4S,7′S)-4-(3-chloroanilino)-3′-ethyl-7′-[(2R)-2-methyl-3-{[(5R)-5-methyl-5,6,7,8-tetrahydroquinolin-4-yl]oxy}propyl]-2′,3′,7′,8′-tetrahydrospiro[cyclohexane-1,6′-indeno[5,6-b][1,4]dioxine]-4-carboxylic acid]	56	0.0231		
C[C@@H](COc1ccnc2c1[C@H](C)CCC2)C[C@@H]1Cc2ccc(OCC3CC3)cc2[C@]12CC[C@@](Nc1cccc(Cl)c1)(C(=O)O)CC2 [Example 790, (1r,2′R,4R)-4-(3-chloroanilino)-6′-(cyclopropylmethoxy)-2′-[(2R)-2-methyl-3-{[(5R)-5-methyl-5,6,7,8-tetrahydroquinolin-4-yl]oxy}propyl]-2′,3′-dihydrospiro[cyclohexane-1,1′-indene]-4-carboxylic acid]	1460	0.764		
C[C@@H](COc1ccnc2c1[C@H](C)CCC2)C[C@H]1Cc2cc3c(cc2[C@]12CC[C@@](Nc1cccc(Cl)c1)(C(=O)O)CC2)CCC3 [Example 852, (1r,2′S,4S)-4-(3-chloroanilino)-2′-[(2R)-2-methyl-3-{[(5R)-5-methyl-5,6,7,8-tetrahydroquinolin-4-yl]oxy}propyl]-3′,5′,6′,7′-tetrahydro-2′H-spiro[cyclohexane-1,1′-[s]indacene]-4-carboxylic acid]	235	0.0896		
COC[C@H]1C[C@@H]1c1ccc2c(c1)[C@]1(CC[C@@](Nc3cccc(Cl)c3)(C(=O)O)CC1)[C@@H](C[C@@H](C)COc1ccnc3c1[C@H](C)CCC3)C2 [Example 874, (1r,2′S,4S)-4-(3-chloroanilino)-6′-[(1S,2S)-2-(methoxymethyl)cyclopropyl]-2′-[(2R)-2-methyl-3-{[(5R)-5-methyl-5,6,7,8-tetrahydroquinolin-4-yl]oxy}propyl]-2′,3′-dihydrospiro[cyclohexane-1,1′-indene]-4-carboxylic acid]	113	0.161		
C[C@@H](COc1ccnc2c1[C@H](C)CCC2)CN1Cc2cc3c(cc2[C@]12CC[C@@](Nc1ccc(F)c(Cl)c1)(C(=O)O)CC2)OCO3 [Example 47, (1s,4S)-4-(3-chloro-4-fluoroanilino)-6′-[(2R)-2-methyl-3-{[(5R)-5-methyl-5,6,7,8-tetrahydroquinolin-4-yl]oxy}propyl]-6′,7′-dihydro-2′H-spiro[cyclohexane-1,5′-[1,3]dioxolo[4,5-f]isoindole]-4-carboxylic acid]	37.4		0.0933	
C[C@@H](COc1ccnc2c1[C@H](C)CCC2)CN1Cc2cc3c(cc2[C@]12CC[C@](Nc1ccc(F)c(Cl)c1)(C(=O)O)CC2)OCO3 [Example 48, (1r,4R)-4-(3-chloro-4-fluoroanilino)-6′-[(2R)-2-methyl-3-{[(5R)-5-methyl-5,6,7,8-tetrahydroquinolin-4-yl]oxy}propyl]-6′,7′-dihydro-2′H-spiro[cyclohexane-1,5′-[1,3]dioxolo[4,5-f]isoindole]-4-carboxylic acid]	21500		104	
C[C@@H](COc1ccnc2c1[C@H](C)CCC2)C[C@H]1Cc2cc3c(cc2[C@]12CC[C@@](Nc1cccc(Cl)c1)(C(=O)O)CC2)OCC1(CC1)CO3 [Example 994, (1r,4S,8′S)-4-(3-chloroanilino)-8′-[(2R)-2-methyl-3-{[(5R)-5-methyl-5,6,7,8-tetrahydroquinolin-4-yl]oxy}propyl]-8′,9′-dihydro-2′H,4′H-dispiro[cyclohexane-1,7′-indeno[5,6-b][1,4]dioxepine-3′,1″-cyclopropane]-4-carboxylic acid]	59.7	0.0442		
CC(=O)OC(C)OC(=O)[C@]1(Nc2cccc(Cl)c2)CC[C@@]2(CC1)c1cc3c(cc1C[C@@H]2C[C@@H](C)COc1ccnc2c1[C@H](C)CCC2)OCO3 (stereo partly drawn) [Example 939, 1-(acetyloxy)ethyl (1r,4S,6′S)-4-(3-chloroanilino)-6′-[(2R)-2-methyl-3-{[(5R)-5-methyl-5,6,7,8-tetrahydroquinolin-4-yl]oxy}propyl]-6′,7′-dihydro-2′H-spiro[cyclohexane-1,5′-indeno[5,6-d][1,3]dioxole]-4-carboxylate]	157	1.7		
C[C@@H](COc1ccnc2c1[C@H](C)CC[C@H]2C)C[C@H]1Cc2cc3c(cc2[C@]12CC[C@@](Nc1cccc(Cl)c1)(C(=O)O)CC2)OCCO3 [Example 963, (1r,4S,7′S)-4-(3-chloroanilino)-7′-[(2R)-3-{[(5R,8R)-5,8-dimethyl-5,6,7,8-tetrahydroquinolin-4-yl]oxy}-2-methylpropyl]-2′,3′,7′,8′-tetrahydrospiro[cyclohexane-1,6′-indeno[5,6-b][1,4]dioxine]-4-carboxylic acid]	97.3	0.0235		
CCCC1COc2cc3c(cc2OC1)[C@]1(CC[C@@](Nc2cccc(Cl)c2)(C(=O)O)CC1)[C@@H](C[C@@H](C)COc1ccnc2c1[C@H](C)CCC2)C3 (single isomer, unassigned) [Example 991]		0.0764		162
CC1COc2cc3c(cc2OC1)[C@]1(CC[C@@](Nc2cccc(Cl)c2)(C(=O)O)CC1)[C@@H](C[C@@H](C)COc1ccnc2c1[C@H](C)CCC2)C3 (single isomer, unassigned) [Example 982]		0.0264		157
CCC(=O)OC(C)OC(=O)[C@]1(Nc2cccc(Cl)c2)CC[C@@]2(CC1)c1cc3c(cc1C[C@@H]2C[C@@H](C)COc1ccnc2c1[C@H](C)CCC2)OCO3 (stereo partly drawn) [Example 940, 1-(propanoyloxy)ethyl (1r,4S,6′S)-4-(3-chloroanilino)-6′-[(2R)-2-methyl-3-{[(5R)-5-methyl-5,6,7,8-tetrahydroquinolin-4-yl]oxy}propyl]-6′,7′-dihydro-2′H-spiro[cyclohexane-1,5′-indeno[5,6-d][1,3]dioxole]-4-carboxylate]	266	2.52		
COCCOCCOC(=O)[C@]1(Nc2cccc(Cl)c2)CC[C@@]2(CC1)c1cc3c(cc1C[C@@H]2C[C@@H](C)COc1ccnc2c1[C@H](C)CCC2)OCO3 [Example 933, 2-(2-methoxyethoxy)ethyl (1r,4S,6′S)-4-(3-chloroanilino)-6′-[(2R)-2-methyl-3-{[(5R)-5-methyl-5,6,7,8-tetrahydroquinolin-4-yl]oxy}propyl]-6′,7′-dihydro-2′H-spiro[cyclohexane-1,5′-indeno[5,6-d][1,3]dioxole]-4-carboxylate]	18900	303		
C[C@@H](COc1ccnc2c1[C@H](C)CCC2)C[C@H]1Cc2cc3c(cc2[C@]12CC[C@@](Nc1cccc(Cl)c1)(C(=O)O)CC2)OCCCCO3 [Example 836, (1r,4S,9′S)-4-(3-chloroanilino)-9′-[(2R)-2-methyl-3-{[(5R)-5-methyl-5,6,7,8-tetrahydroquinolin-4-yl]oxy}propyl]-2′,3′,4′,5′,9′,10′-hexahydrospiro[cyclohexane-1,8′-indeno[5,6-b][1,4]dioxocine]-4-carboxylic acid]	106	0.0472		
